Test systems include 786-0; ACHN; CAKI-1; COLO 205; HCT-15; Hs-578T; MDA-MB-435; MOLT-4; NCI-H460; NCI/ADR-RES; SF-268; SF-539; SK-MEL-28; SK-MEL-2; SK-OV-3; SN12C; SW-620; TK-10; UO-31; A498.
Test in all cases: inhibition of tumour cell growth, NCI panel, 48 h

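Interpolation was linear, between the two tested concentrations surrounding the appropriate level; five concentrations were tested over 48 hours in 96-well plates. GI50 marks 50% less growth.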 The source made the active and inactive calls. No stated cut-off is given here; in the data, active = GI50 up to about 1.1 µM and inactive = higher. Residues, ends and D or L forms follow the SMILES beside them. *: point of attachment. Boc = CC(C)(C)OC(=O)*; OBn = c1ccc(CO*)cc1; Bn = c1ccc(C*)cc1 Some results are limits rather than exact numbers.

With `Cc1csc2n(C)c(=O)c3ccccc3[n+]12`, the GI50 in the assay with 786-0 was > 100 µM (inactive); in the assay on ACHN it was > 100 µM (inactive); in the assay with CAKI-1 it was > 100 µM (inactive); in the assay with COLO 205 it was > 100 µM (inactive); with HCT-15 it was over 100 µM; in the assay on Hs-578T, > 100 µM (inactive). Further, the GI50 with MDA-MB-435, with MOLT-4, in the assay on NCI-H460, in the assay with NCI/ADR-RES, with SF-268 and with SF-539 was > 100 µM (inactive) throughout. Besides, the GI50 in the assay with SK-MEL-28, in the assay with SK-MEL-2, in the assay with SK-OV-3, in the assay with SN12C, in the assay on SW-620 and in the assay on TK-10 was > 100 µM (inactive) each time. The GI50 with UO-31 was > 100 µM (inactive).

For `Nc1ccccc1C(=O)CCC1C(=O)NC(=S)NC1=O`, the GI50 in the assay with 786-0 was > 100 µM (inactive); in the assay on A498 it was > 100 µM (inactive); in the assay on ACHN it was > 100 µM (inactive); in the assay on CAKI-1, > 100 µM (inactive); in the assay on COLO 205, > 100 µM (inactive); with HCT-15, over 100 µM. Further, the GI50 with Hs-578T, in the assay with MOLT-4, with NCI-H460, in the assay on NCI/ADR-RES, in the assay on SF-268 and in the assay with SF-539 was > 100 µM (inactive) throughout. For the same molecule, the GI50 in the assay with SK-MEL-28, in the assay on SK-MEL-2, in the assay on SK-OV-3, with SW-620, with TK-10 and in the assay with UO-31 was > 100 µM (inactive) throughout.

Consider `COc1ccc(CSc2ccccc2Cn2cccc2)cc1OC`, for which the GI50 is > 100 µM (inactive) with 786-0; 27.6 µM (inactive) with A498; 10.4 µM (inactive) in the assay on ACHN; 93.1 µM (inactive) with CAKI-1; > 100 µM (inactive) in the assay with COLO 205; 87.9 µM in the assay on HCT-15. In addition, the GI50 in the assay with MDA-MB-435 was > 100 µM (inactive); in the assay on MOLT-4, > 10 µM (inactive); with NCI-H460 it was > 100 µM (inactive); with NCI/ADR-RES it was 34.3 µM (inactive); with SF-268, > 100 µM (inactive); in the assay on SF-539, > 100 µM (inactive). The GI50 was > 100 µM (inactive) with SK-MEL-28; > 100 µM (inactive) in the assay on SK-OV-3; 34.8 µM (inactive) in the assay on SN12C; > 100 µM (inactive) in the assay on SW-620; > 100 µM (inactive) in the assay on TK-10; 39.4 µM (inactive) in the assay on UO-31.

As to `CCC(C=O)P1(=O)OC(C)(C)CN1C(C)(C)C` (stereo not given), the GI50 in the assay with 786-0 is > 100 µM (inactive); with A498 it was 81.8 µM (inactive); in the assay with ACHN, > 100 µM (inactive); in the assay on CAKI-1, > 100 µM (inactive); in the assay with COLO 205 it was > 100 µM (inactive); in the assay with HCT-15, 99.8 µM. Moreover, the GI50 in the assay with MDA-MB-435 was 99.5 µM (inactive); in the assay with NCI-H460, > 100 µM (inactive); in the assay with NCI/ADR-RES, 92.3 µM (inactive); in the assay with SF-268 it was 88.3 µM (inactive); in the assay on SF-539, > 100 µM (inactive); in the assay with SK-MEL-2, 34.9 µM (inactive). Moreover, the GI50 with SK-OV-3 is 68.1 µM (inactive); in the assay with SW-620 it was > 100 µM (inactive); in the assay on TK-10 it was 93.3 µM (inactive); with UO-31 it was > 100 µM (inactive).

As for `COc1cccc(C2c3cc4c(cc3OC(NNC(N)=O)C2C)OCO4)c1OC` (stereo not given), the GI50 is 4.76 µM (inactive) in the assay with 786-0; 18.2 µM (inactive) in the assay on A498; 26.9 µM (inactive) in the assay with ACHN; 24.5 µM (inactive) with CAKI-1; 14.7 µM (inactive) in the assay on COLO 205; 9.23 µM in the assay on HCT-15. In addition, the GI50 was 19.7 µM (inactive) in the assay on Hs-578T; 19.9 µM (inactive) in the assay on MDA-MB-435; 16.5 µM (inactive) in the assay on MOLT-4; 23.1 µM (inactive) in the assay on NCI-H460; 27.7 µM (inactive) with SF-268; 15.4 µM (inactive) in the assay with SF-539. The GI50 was 21.4 µM (inactive) in the assay with SK-MEL-28; 20.5 µM (inactive) with SK-MEL-2; 34.2 µM (inactive) in the assay on SK-OV-3; 27 µM (inactive) in the assay with SN12C; 22.6 µM (inactive) in the assay on SW-620; 28.9 µM (inactive) in the assay on TK-10. The GI50 in the assay on UO-31 is 25.6 µM (inactive).

As for `COc1c2cc(C(C)(C)C)cc1Cc1cccc(c1OCc1cccc([N+](=O)[O-])c1)Cc1cc(C(C)(C)C)cc(c1OC)Cc1cccc(c1OCc1cccc([N+](=O)[O-])c1)Cc1cc(C(C)(C)C)cc(c1OC)Cc1cccc(c1OCc1cccc([N+](=O)[O-])c1)C2`, the GI50 with 786-0 was > 50 µM (inactive); in the assay on A498, > 50 µM (inactive); in the assay with ACHN it was > 50 µM (inactive); in the assay with CAKI-1, > 50 µM (inactive); in the assay with COLO 205 it was > 50 µM (inactive); in the assay with HCT-15, over 50 µM. Also, the GI50 with MDA-MB-435, in the assay with MOLT-4, with NCI-H460, in the assay on NCI/ADR-RES, in the assay on SF-268 and with SF-539 was > 50 µM (inactive) throughout. In addition, the GI50 with SK-MEL-28, in the assay with SK-MEL-2, with SN12C, with SW-620 and in the assay with UO-31 was > 50 µM (inactive) in each case.

With `CN(C)C(=S)N/N=C\C=N/NC(=S)N(C)C`, the GI50 in the assay on 786-0 is 0.209 µM (active); with A498 it was 0.643 µM (active); with ACHN it was 0.238 µM (active); in the assay on CAKI-1, 0.447 µM (active); with COLO 205, 0.246 µM (active); in the assay on HCT-15, 0.0843 µM. Also, the GI50 is 0.953 µM (active) in the assay with MDA-MB-435; 0.0231 µM (active) with NCI-H460; 0.189 µM (active) in the assay with NCI/ADR-RES; 0.112 µM (active) with SF-268; 6.97 µM (inactive) with SF-539; 0.552 µM (active) in the assay with SK-MEL-28. Further, the GI50 is 0.361 µM (active) with SK-MEL-2; 0.344 µM (active) in the assay with SK-OV-3; 0.286 µM (active) in the assay with SN12C; 0.0569 µM (active) in the assay on SW-620; 2.53 µM (inactive) in the assay on TK-10; 0.237 µM (active) with UO-31.

Turning to `O=C(O)CCCNc1ncc2c(n1)-c1ccccc1OC2`, the GI50 was > 100 µM (inactive) with 786-0; > 100 µM (inactive) with ACHN; > 100 µM (inactive) in the assay on CAKI-1; > 100 µM (inactive) in the assay with COLO 205; over 100 µM with HCT-15; > 100 µM (inactive) in the assay on Hs-578T. Besides, the GI50 with MDA-MB-435, in the assay on MOLT-4, in the assay on NCI-H460, with NCI/ADR-RES, in the assay with SF-268 and in the assay with SF-539 was > 100 µM (inactive) throughout. For the same molecule, the GI50 in the assay with SK-MEL-28, in the assay on SK-MEL-2, in the assay on SK-OV-3, in the assay with SN12C, in the assay with SW-620 and in the assay on TK-10 was > 100 µM (inactive) each time. In addition, the GI50 with UO-31 was 68.2 µM (inactive).

Take `C1CCC2C(C1)CCCC2NC1=NCCO1` (stereo not given): the GI50 in the assay with 786-0 is > 100 µM (inactive); in the assay on A498, > 100 µM (inactive); in the assay with ACHN, > 100 µM (inactive); in the assay with CAKI-1, > 100 µM (inactive); in the assay with COLO 205, > 100 µM (inactive); in the assay on HCT-15 it was over 100 µM. Besides, the GI50 in the assay on MDA-MB-435, in the assay on MOLT-4, in the assay on NCI-H460, in the assay with NCI/ADR-RES, with SF-268 and with SF-539 was > 100 µM (inactive) each time. Further, the GI50 was 76 µM (inactive) in the assay with SK-MEL-28; > 100 µM (inactive) with SK-MEL-2; > 100 µM (inactive) with SK-OV-3; > 100 µM (inactive) in the assay with SN12C; > 100 µM (inactive) in the assay with SW-620; > 100 µM (inactive) in the assay with TK-10. For the same molecule, the GI50 in the assay on UO-31 was > 100 µM (inactive).

For `Cc1nn(C(=O)c2ccccc2O)c2c1C(c1ccccc1)SC(=N)N2` (stereo not given), the GI50 in the assay on 786-0 is 1.57 µM (inactive); with ACHN, 0.419 µM (active); in the assay with CAKI-1 it was 0.547 µM (active); in the assay on COLO 205, 3.87 µM (inactive); in the assay with HCT-15, 3.86 µM; in the assay with Hs-578T, 0.7 µM (active). For the same molecule, the GI50 in the assay on MDA-MB-435 is 0.416 µM (active); in the assay on MOLT-4 it was 2.75 µM (inactive); with NCI-H460 it was 3.64 µM (inactive); with NCI/ADR-RES it was 1.56 µM (inactive); in the assay with SF-268 it was 3.27 µM (inactive); with SF-539, 0.214 µM (active). In addition, the GI50 in the assay with SK-MEL-28 was > 10 µM (inactive); in the assay with SK-MEL-2 it was 3.58 µM (inactive); with SK-OV-3, 5.6 µM (inactive); in the assay with SN12C, 2.25 µM (inactive); with SW-620 it was 3.58 µM (inactive); in the assay on TK-10, 0.897 µM (active).

As to `CC(C)CC(NC(=O)C(Cc1ccccc1)NC(=O)C(COCc1ccccc1)NC(=O)OC(C)(C)C)C(=O)OCc1ccccc1` (stereo not drawn) (Boc-Ser(Bn)-Phe-Leu-OBn; configuration not given here), the GI50 in the assay with 786-0 was 17.1 µM (inactive); in the assay on A498 it was 95.9 µM (inactive); with ACHN, 17.9 µM (inactive); in the assay with CAKI-1 it was 30 µM (inactive); with COLO 205 it was 17.5 µM (inactive); with HCT-15, 16.3 µM. In addition, the GI50 in the assay on MDA-MB-435 is > 10 µM (inactive); with MOLT-4, 13.9 µM (inactive); with NCI-H460, 11.9 µM (inactive); in the assay with NCI/ADR-RES, > 100 µM (inactive); with SF-268, 21.7 µM (inactive); in the assay with SF-539 it was 33.9 µM (inactive). The GI50 with SK-MEL-28 is 19.5 µM (inactive); in the assay with SK-MEL-2, 56.6 µM (inactive); in the assay on SK-OV-3, 36.4 µM (inactive); with SN12C it was 25.8 µM (inactive); with SW-620, 22.1 µM (inactive); in the assay on TK-10 it was 34 µM (inactive). The GI50 in the assay on UO-31 was 39.5 µM (inactive).

(Values after ChEMBL document CHEMBL1201862, “PubChem BioAssay data set” (2004).)
